Experiments:
[1] = biological target: JAK1 (Homo sapiens (Human), UniProt P23458); assay: Biochemical JAK1 kinase assay (LanthaScreen)
Procedure, shortened: (§1)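 GST-JAK + GFP-STAT1 peptide, HEPES pH 7.5/MgCl2/EGTA/Brij-35 buffer; cpd preincubation 1 h RT; ATP start, 1 h RT; stop with 10 mM EDTA + 2 nM Tb-anti-pSTAT1; TR-FRET 520/495. 4-parameter IC50 → pKi (Cheng-Prusoff).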

[2] = biological target: JAK2 (Homo sapiens (Human), UniProt O60674); assay: Biochemical JAK2 kinase assay (LanthaScreen)
Procedure, shortened: as §1

[3] = biological target: JAK3 (Homo sapiens (Human), UniProt P52333); assay: Biochemical JAK3 kinase assay (LanthaScreen)
Sequence of JAK3 (P52333 whole entry): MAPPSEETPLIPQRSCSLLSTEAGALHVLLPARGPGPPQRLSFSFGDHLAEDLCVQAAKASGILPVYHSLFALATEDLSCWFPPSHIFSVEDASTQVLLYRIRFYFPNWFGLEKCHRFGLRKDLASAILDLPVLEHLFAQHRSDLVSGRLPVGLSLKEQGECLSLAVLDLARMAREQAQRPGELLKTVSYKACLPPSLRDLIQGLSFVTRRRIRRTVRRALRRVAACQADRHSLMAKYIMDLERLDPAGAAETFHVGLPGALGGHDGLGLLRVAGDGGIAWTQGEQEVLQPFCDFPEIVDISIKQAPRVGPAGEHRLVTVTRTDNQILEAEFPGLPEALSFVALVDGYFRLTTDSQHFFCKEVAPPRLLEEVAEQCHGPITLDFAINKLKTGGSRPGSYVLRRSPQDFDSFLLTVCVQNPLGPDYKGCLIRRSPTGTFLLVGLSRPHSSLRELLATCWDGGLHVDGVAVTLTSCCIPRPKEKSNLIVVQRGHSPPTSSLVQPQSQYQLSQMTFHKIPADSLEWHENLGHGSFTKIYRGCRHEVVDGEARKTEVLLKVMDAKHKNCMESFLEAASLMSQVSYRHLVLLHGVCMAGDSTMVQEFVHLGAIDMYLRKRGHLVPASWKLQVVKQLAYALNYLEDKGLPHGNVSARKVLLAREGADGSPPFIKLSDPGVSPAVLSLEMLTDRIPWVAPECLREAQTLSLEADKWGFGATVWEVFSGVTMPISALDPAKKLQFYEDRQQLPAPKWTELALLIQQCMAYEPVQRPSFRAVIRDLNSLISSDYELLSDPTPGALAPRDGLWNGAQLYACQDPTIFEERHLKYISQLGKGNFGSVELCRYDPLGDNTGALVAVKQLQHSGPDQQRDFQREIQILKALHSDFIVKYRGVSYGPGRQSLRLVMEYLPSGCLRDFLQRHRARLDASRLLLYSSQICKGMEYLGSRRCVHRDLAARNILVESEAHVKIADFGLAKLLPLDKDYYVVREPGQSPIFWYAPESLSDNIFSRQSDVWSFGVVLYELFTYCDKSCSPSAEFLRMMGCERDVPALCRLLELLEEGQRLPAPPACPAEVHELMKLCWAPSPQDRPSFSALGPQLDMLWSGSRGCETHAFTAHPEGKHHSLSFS
Procedure, shortened: as §1

[4] = biological target: Tyk2 (Homo sapiens (Human), UniProt P29597); assay: Biochemical Tyk2 kinase assay (LanthaScreen)
Sequence of Tyk2 (P29597 whole entry): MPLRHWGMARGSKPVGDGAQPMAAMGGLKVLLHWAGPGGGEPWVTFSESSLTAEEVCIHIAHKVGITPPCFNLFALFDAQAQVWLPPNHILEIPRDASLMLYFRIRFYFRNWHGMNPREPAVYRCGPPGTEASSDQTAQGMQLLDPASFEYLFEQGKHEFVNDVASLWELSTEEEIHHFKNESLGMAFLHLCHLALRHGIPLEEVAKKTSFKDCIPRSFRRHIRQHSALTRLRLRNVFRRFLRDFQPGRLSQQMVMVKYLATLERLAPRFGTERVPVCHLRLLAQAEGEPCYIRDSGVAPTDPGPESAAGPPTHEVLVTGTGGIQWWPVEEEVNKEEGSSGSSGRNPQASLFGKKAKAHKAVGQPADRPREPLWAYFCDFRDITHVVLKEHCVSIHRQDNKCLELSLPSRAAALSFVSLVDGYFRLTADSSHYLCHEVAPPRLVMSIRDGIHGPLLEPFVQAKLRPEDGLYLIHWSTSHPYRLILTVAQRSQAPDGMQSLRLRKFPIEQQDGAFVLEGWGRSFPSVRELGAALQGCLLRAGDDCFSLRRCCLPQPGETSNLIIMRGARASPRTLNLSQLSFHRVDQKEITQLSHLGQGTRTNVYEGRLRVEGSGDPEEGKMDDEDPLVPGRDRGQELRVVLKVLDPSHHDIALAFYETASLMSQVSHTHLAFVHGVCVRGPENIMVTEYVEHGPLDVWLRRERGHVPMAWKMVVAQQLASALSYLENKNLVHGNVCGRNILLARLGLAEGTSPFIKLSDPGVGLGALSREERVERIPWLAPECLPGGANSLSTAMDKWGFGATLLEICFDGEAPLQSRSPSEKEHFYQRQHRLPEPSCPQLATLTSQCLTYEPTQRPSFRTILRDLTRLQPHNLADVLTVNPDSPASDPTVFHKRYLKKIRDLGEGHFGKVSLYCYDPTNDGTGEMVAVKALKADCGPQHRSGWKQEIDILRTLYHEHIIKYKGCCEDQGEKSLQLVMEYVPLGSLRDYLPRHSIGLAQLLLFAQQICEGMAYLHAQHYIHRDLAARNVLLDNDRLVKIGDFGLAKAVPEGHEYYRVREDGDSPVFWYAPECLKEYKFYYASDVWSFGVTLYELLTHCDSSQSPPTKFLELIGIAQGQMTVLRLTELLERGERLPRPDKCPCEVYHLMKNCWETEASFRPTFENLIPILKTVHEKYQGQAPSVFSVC
Procedure, shortened: as §1

[5] = tested on: IL-2 stimulated STAT5 phosphorylation in Tall-1 human T cell line (JAK3); assay: Cellular JAK3 potency assay: inhibition of IL-2 stimulated pSTAT5 in Tall-1 T cells; assay type: cell-based
Procedure, shortened: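 AlphaLISA SureFire Ultra measures STAT5 Tyr694/699 phosphorylation in lysed Tall-1 human T cells. Cells were exposed to compound for 1 h at 37 °C before a 30 min IL-2 challenge (300 ng/ml final). Values are pIC50 means with standard deviation from signal-versus-concentration curves.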

[6] = selectivity JAK3 over JAK1, difference of pKi
[7] = IL-2 stimulated pSTAT5, Tall-1 T cells
[8] = selectivity, difference of pKi values
[9] = IL-2 stimulated pSTAT5 in Tall-1 T cells

Sequence of JAK2 (O60674 whole entry): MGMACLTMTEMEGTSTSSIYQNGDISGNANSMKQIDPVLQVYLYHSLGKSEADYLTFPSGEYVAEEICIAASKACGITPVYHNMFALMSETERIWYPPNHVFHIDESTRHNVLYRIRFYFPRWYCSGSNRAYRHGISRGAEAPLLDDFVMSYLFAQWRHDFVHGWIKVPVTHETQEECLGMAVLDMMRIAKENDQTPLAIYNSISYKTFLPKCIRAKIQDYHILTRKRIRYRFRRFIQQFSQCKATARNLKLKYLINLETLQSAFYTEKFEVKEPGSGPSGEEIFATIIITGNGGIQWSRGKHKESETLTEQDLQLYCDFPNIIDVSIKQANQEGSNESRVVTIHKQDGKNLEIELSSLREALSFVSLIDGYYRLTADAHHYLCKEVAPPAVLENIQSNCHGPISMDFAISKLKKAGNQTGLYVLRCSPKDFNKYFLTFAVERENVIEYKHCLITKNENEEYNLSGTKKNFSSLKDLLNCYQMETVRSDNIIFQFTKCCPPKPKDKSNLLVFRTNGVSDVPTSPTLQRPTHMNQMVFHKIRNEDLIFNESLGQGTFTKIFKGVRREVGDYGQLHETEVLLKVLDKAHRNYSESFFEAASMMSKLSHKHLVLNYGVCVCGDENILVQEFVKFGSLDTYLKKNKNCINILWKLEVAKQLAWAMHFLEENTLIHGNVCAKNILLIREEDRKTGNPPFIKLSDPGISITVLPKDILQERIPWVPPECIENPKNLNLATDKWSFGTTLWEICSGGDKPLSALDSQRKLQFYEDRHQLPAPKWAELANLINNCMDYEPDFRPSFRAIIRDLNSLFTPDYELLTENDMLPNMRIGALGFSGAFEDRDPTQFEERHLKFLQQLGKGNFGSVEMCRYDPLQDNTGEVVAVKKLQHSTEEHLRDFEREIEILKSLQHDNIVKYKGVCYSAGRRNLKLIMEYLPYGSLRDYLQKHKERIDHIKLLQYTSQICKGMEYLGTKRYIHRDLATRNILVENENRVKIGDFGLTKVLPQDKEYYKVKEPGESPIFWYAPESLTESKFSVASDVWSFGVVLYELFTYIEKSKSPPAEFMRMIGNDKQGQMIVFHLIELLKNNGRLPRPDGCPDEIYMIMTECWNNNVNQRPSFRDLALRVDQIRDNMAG
Sequence of JAK1 (P23458 whole entry): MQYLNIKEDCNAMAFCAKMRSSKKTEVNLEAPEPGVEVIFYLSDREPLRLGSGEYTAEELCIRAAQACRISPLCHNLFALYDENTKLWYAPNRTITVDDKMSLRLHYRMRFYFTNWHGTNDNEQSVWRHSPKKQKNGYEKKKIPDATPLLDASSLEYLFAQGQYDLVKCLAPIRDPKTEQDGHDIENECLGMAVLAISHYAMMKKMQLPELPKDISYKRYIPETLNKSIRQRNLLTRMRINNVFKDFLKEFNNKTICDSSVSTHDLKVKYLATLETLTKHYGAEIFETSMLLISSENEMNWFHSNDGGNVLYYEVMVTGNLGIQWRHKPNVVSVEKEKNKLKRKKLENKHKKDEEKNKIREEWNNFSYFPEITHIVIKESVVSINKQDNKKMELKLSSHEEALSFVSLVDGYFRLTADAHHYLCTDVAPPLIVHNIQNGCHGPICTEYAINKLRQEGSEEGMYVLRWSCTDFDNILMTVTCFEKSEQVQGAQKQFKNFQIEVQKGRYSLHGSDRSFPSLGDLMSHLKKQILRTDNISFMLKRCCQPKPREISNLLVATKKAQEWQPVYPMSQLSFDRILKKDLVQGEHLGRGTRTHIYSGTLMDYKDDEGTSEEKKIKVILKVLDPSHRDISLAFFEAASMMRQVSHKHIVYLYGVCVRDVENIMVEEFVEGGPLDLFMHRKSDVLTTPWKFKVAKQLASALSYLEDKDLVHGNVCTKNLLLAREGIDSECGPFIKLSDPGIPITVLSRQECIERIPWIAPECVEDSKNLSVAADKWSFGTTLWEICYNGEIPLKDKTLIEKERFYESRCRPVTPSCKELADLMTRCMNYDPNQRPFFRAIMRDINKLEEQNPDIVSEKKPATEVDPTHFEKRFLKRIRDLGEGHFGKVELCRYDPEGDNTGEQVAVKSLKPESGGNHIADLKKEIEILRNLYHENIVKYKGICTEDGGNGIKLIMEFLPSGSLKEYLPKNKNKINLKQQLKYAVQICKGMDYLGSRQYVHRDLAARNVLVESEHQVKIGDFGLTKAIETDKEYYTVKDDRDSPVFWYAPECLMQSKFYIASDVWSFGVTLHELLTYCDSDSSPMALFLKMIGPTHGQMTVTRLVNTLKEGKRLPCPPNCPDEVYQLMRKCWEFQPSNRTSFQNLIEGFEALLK

| SMILES | JAK 1 (pKi) [1] | JAK 2 (pKi) [2] | JAK 3 (pKi) [3] | JAK3 (pKi)-JAK1 (pKi) [3, 6] | Tyk 2 (pKi) [4] | Tall-1 (pIC50) [5, 7] | JAK3 (pKi)-JAK1 (pKi) [3, 8] | Tall-1 (pIC50) [5, 9] |
| --- | --- | --- | --- | --- | --- | --- | --- | --- |
| C=CC(=O)N1CC(CCn2c(=O)ccc3cnc(Nc4cnn(CC(C)(C)O)c4)nc32)C1 [Example 57] | E (E represents a pKi value of 7 or below (Ki of 100 nM or above)) | E (E represents a pKi value of 7 or below (Ki of 100 nM or above)) | B (B represents pKi value between 9 and 10 (Ki between 1 nM and 0.1 nM)) | A (A represents a value of 3 or above) | E (E represents a pKi value of 7 or below (Ki of 100 nM or above)) | C (C represents a pIC50 value between 6 and 6.7 (IC50 between 1 μM and 200 nM)) |  |  |
| C=CC(=O)N1CCN(CCn2c(=O)ccc3cnc(Nc4cnn(CCN5CCOCC5)c4)nc32)[C@@H](C)C1 [Example 245] | E (E represents a pKi value of 7 or below (Ki of 100 nM or above)) | E (E represents a pKi value of 7 or below (Ki of 100 nM or above)) | B (B represents pKi value between 9 and 10 (Ki between 1 nM and 0.1 nM)) |  | E (E represents a pKi value of 7 or below (Ki of 100 nM or above)) |  | A (A represents a value of 3 or above) | B (B represents a pC50 value between 6.7 (included) and 7.5 (IC50 between 200 nM and 32 nM)) |
| C=CC(=O)N1CCN(CCn2c(=O)ccc3cnc(Nc4ccc(N5C[C@@H](C)N(C)[C@@H](C)C5)cc4)nc32)[C@@H](C)C1 [Example 249] | E (E represents a pKi value of 7 or below (Ki of 100 nM or above)) | E (E represents a pKi value of 7 or below (Ki of 100 nM or above)) | B (B represents pKi value between 9 and 10 (Ki between 1 nM and 0.1 nM)) |  | E (E represents a pKi value of 7 or below (Ki of 100 nM or above)) |  | A (A represents a value of 3 or above) | A (A represents a pIC50 value≥7.5 (IC50≤32 nM)) |
| C=CC(=O)N1CCN(CCn2c(=O)ccc3cnc(Nc4ccc(N5CCN(C)CC5)cc4)nc32)[C@@H](C)C1 [Example 160] | E (E represents a pKi value of 7 or below (Ki of 100 nM or above)) | E (E represents a pKi value of 7 or below (Ki of 100 nM or above)) | B (B represents pKi value between 9 and 10 (Ki between 1 nM and 0.1 nM)) | A (A represents a value of 3 or above) | E (E represents a pKi value of 7 or below (Ki of 100 nM or above)) | A (A represents a pIC50 value≥7.5 (IC50≤32 nM)) |  |  |
| C=CC(=O)N1CCN(CCn2c(=O)ccc3cnc(Nc4ccc(N5CCN(C(=O)COC)CC5)cc4)nc32)CC1 [Example 144] | E (E represents a pKi value of 7 or below (Ki of 100 nM or above)) | E (E represents a pKi value of 7 or below (Ki of 100 nM or above)) | A (A represents a pKi value≥10 (Ki≤0.1 nM)) | A (A represents a value of 3 or above) | E (E represents a pKi value of 7 or below (Ki of 100 nM or above)) | B (B represents a pC50 value between 6.7 (included) and 7.5 (IC50 between 200 nM and 32 nM)) |  |  |
| C=CC(=O)N1CCN(CCn2c(=O)ccc3cnc(Nc4ccc(N5CCN(C(=S)N(C)C)CC5)cc4)nc32)CC1 [Example 214] | E (E represents a pKi value of 7 or below (Ki of 100 nM or above)) | E (E represents a pKi value of 7 or below (Ki of 100 nM or above)) | B (B represents pKi value between 9 and 10 (Ki between 1 nM and 0.1 nM)) | A (A represents a value of 3 or above) | E (E represents a pKi value of 7 or below (Ki of 100 nM or above)) | B (B represents a pC50 value between 6.7 (included) and 7.5 (IC50 between 200 nM and 32 nM)) |  |  |
| C=CC(=O)N1CC(CCn2c(=O)ccc3cnc(Nc4cccc(C(=O)N5CCOCC5)c4)nc32)C1 [Example 65] | E (E represents a pKi value of 7 or below (Ki of 100 nM or above)) | E (E represents a pKi value of 7 or below (Ki of 100 nM or above)) | B (B represents pKi value between 9 and 10 (Ki between 1 nM and 0.1 nM)) | A (A represents a value of 3 or above) | E (E represents a pKi value of 7 or below (Ki of 100 nM or above)) | C (C represents a pIC50 value between 6 and 6.7 (IC50 between 1 μM and 200 nM)) |  |  |
| C=CC(=O)N1CCN(CCn2c(=O)ccc3cnc(Nc4cnn(C(C)(C)COC)c4)nc32)[C@@H](C)C1 [Example 233] | E (E represents a pKi value of 7 or below (Ki of 100 nM or above)) | E (E represents a pKi value of 7 or below (Ki of 100 nM or above)) | B (B represents pKi value between 9 and 10 (Ki between 1 nM and 0.1 nM)) | A (A represents a value of 3 or above) | E (E represents a pKi value of 7 or below (Ki of 100 nM or above)) | B (B represents a pC50 value between 6.7 (included) and 7.5 (IC50 between 200 nM and 32 nM)) |  |  |
| C=CC(=O)N1CC(CCn2c(=O)ccc3cnc(Nc4ccc(N5CCN(C)CC5)c(F)c4)nc32)C1 [Example 48] | E (E represents a pKi value of 7 or below (Ki of 100 nM or above)) | E (E represents a pKi value of 7 or below (Ki of 100 nM or above)) | B (B represents pKi value between 9 and 10 (Ki between 1 nM and 0.1 nM)) | A (A represents a value of 3 or above) | E (E represents a pKi value of 7 or below (Ki of 100 nM or above)) | B (B represents a pC50 value between 6.7 (included) and 7.5 (IC50 between 200 nM and 32 nM)) |  |  |
| C=CC(=O)N1CC(CCn2c(=O)ccc3cnc(Nc4cccc(C(C)N5CCN(C(C)=O)CC5)c4)nc32)C1 (stereo not drawn) [Example 216] | E (E represents a pKi value of 7 or below (Ki of 100 nM or above)) | E (E represents a pKi value of 7 or below (Ki of 100 nM or above)) | B (B represents pKi value between 9 and 10 (Ki between 1 nM and 0.1 nM)) | A (A represents a value of 3 or above) | E (E represents a pKi value of 7 or below (Ki of 100 nM or above)) | C (C represents a pIC50 value between 6 and 6.7 (IC50 between 1 μM and 200 nM)) |  |  |
| C=CC(=O)N1CC(CCn2c(=O)ccc3cnc(Nc4cccc(C(C)N5CCN(C(=O)N(C)C)CC5)c4)nc32)C1 (stereo not drawn) [Example 215] | E (E represents a pKi value of 7 or below (Ki of 100 nM or above)) | E (E represents a pKi value of 7 or below (Ki of 100 nM or above)) | B (B represents pKi value between 9 and 10 (Ki between 1 nM and 0.1 nM)) | A (A represents a value of 3 or above) | E (E represents a pKi value of 7 or below (Ki of 100 nM or above)) | B (B represents a pC50 value between 6.7 (included) and 7.5 (IC50 between 200 nM and 32 nM)) |  |  |
| C[C@@H]1CN(c2ccc(Nc3ncc4ccc(=O)n(CCC5CN(C(=O)/C=C/CN(C)C)C5)c4n3)cc2)CCN1C [Example 228] | E (E represents a pKi value of 7 or below (Ki of 100 nM or above)) | E (E represents a pKi value of 7 or below (Ki of 100 nM or above)) | B (B represents pKi value between 9 and 10 (Ki between 1 nM and 0.1 nM)) | A (A represents a value of 3 or above) | E (E represents a pKi value of 7 or below (Ki of 100 nM or above)) | C (C represents a pIC50 value between 6 and 6.7 (IC50 between 1 μM and 200 nM)) |  |  |
| C=CC(=O)N1CC(CCn2c(=O)ccc3cnc(Nc4ccc(CN5CCN(C)CC5)cc4)nc32)C1 [Example 46] | E (E represents a pKi value of 7 or below (Ki of 100 nM or above)) | E (E represents a pKi value of 7 or below (Ki of 100 nM or above)) | B (B represents pKi value between 9 and 10 (Ki between 1 nM and 0.1 nM)) | A (A represents a value of 3 or above) | E (E represents a pKi value of 7 or below (Ki of 100 nM or above)) | B (B represents a pC50 value between 6.7 (included) and 7.5 (IC50 between 200 nM and 32 nM)) |  |  |
| C=CC(=O)N1CC(CCn2c(=O)ccc3cnc(Nc4ccc(N5CCN(S(=O)(=O)N(C)C)CC5)cc4)nc32)C1 [Example 97] | E (E represents a pKi value of 7 or below (Ki of 100 nM or above)) | E (E represents a pKi value of 7 or below (Ki of 100 nM or above)) | B (B represents pKi value between 9 and 10 (Ki between 1 nM and 0.1 nM)) | A (A represents a value of 3 or above) | E (E represents a pKi value of 7 or below (Ki of 100 nM or above)) | A (A represents a pIC50 value≥7.5 (IC50≤32 nM)) |  |  |
| C=CC(=O)N1CCN(CCn2c(=O)ccc3cnc(Nc4cnn(C)c4)nc32)[C@@H](CCC)C1 [Example 158] | E (E represents a pKi value of 7 or below (Ki of 100 nM or above)) | E (E represents a pKi value of 7 or below (Ki of 100 nM or above)) | B (B represents pKi value between 9 and 10 (Ki between 1 nM and 0.1 nM)) | A (A represents a value of 3 or above) | E (E represents a pKi value of 7 or below (Ki of 100 nM or above)) | C (C represents a pIC50 value between 6 and 6.7 (IC50 between 1 μM and 200 nM)) |  |  |

— patent US11697648B2, “Fused pyrimidine pyridinone compounds as JAK inhibitors” (THERAVANCE BIOPHARMA R&D IP, LLC, priority 2019, dated 2023)
